Drawing on ChEMBL document CHEMBL1156829 (Proc Natl Acad Sci U S A, 2008), this text covers EC50 and CC50 for 37 compounds.

Bounds are passed on as bounds.

For series [1], the system named is Plasmodium falciparum. Description: NOVARTIS: Inhibition of Plasmodium falciparum 3D7 (drug-susceptible) proliferation in erythrocyte-based infection assay. The format is functional, organism-based. To be noted: Plasmodium falciparum, 3D7.
In series [2] the test system is Plasmodium falciparum. Description: NOVARTIS: Inhibition of Plasmodium falciparum W2 (drug-resistant) proliferation in erythrocyte-based infection assay. To be noted: Plasmodium falciparum, W2; read-out: EC50. The format is functional, organism-based.
The nature of series [3]: NOVARTIS: Cytotoxicity against human hepatocellular carcinoma cell line (Huh7). Format: toxicity, cell-based, Huh-7. The following applies: Huh7 cells (hepatocellular carcinoma cell line).

With `CCN(CC)Cc1cc(Nc2ccnc3cc(Cl)ccc23)ccc1O`, the figures for the EC50 in the series on Plasmodium falciparum [1] and in the series with Plasmodium falciparum [2] were 0.0103 µM and 0.013 µM, respectively. In addition, in series [3], the CC50 (as a rule, the concentration at which the toxic effect on the cells reaches its halfway point) was > 100 µM.
As for `CCN(CC)CCNc1ccnc2cc(Cl)ccc12`, the results for the EC50 in the series with Plasmodium falciparum [1] and with Plasmodium falciparum [2] were 0.00716 µM and 0.00601 µM, respectively. Moreover, the 50% cytotoxic concentration (CC50) in series [3] amounted to 29.9 µM.
Taken in the same sequence, the figures for `CCc1ccccc1N=C1c2c(cccc2[N+](=O)[O-])C(=O)C1C(C)=O` (stereo unspecified) were 0.0113 µM, 0.0154 µM and > 100 µM.
On to `COc1cc(NC(C)CCCN(Cc2ccc(F)cc2)C(=O)C(c2ccccc2)c2ccccc2)c2ncccc2c1` (stereo unspecified), for which the 50% effective concentration (EC50) (in general, the concentration that produces a half-maximal response) was > 1.09 µM in the series on Plasmodium falciparum [1] and < 0.000572 µM in the series with Plasmodium falciparum [2]. Also, in series [3], the cytotoxic concentration (CC50) is > 3.47 µM.
Taken in the same sequence, the figures for `CCc1ccc(C(=O)N(CCc2ccccc2)C(CC)c2nc3ccccc3c(=O)n2-c2ccccc2OC)cc1` (stereo unspecified) were 0.389 µM, 0.0015 µM and > 9.7 µM.
Consider `CCC(c1nc2ccccc2c(=O)n1-c1ccc(F)c(Cl)c1)N(CCc1ccccc1)C(=O)COc1ccc(Cl)cc1` (stereo unspecified), for which the half-maximal effective concentration (EC50) in the series with Plasmodium falciparum [1] is 0.941 µM; with Plasmodium falciparum [2] it was < 0.000849 µM. In addition, the CC50 in series [3] is > 6.45 µM.
For `CCOC(=O)c1c(NC(=O)c2ccccc2)sc2c(O)c(CN(CC)CC)ccc12`, the concentration for a half-maximal effect (EC50) in the series with Plasmodium falciparum [1] came out at 0.267 µM; in the series with Plasmodium falciparum [2], 0.00844 µM. Also, the CC50 in series [3] was > 46.8 µM.
Taken in the same sequence, the figures for `CCCOC(=O)C1=C(C)NC2=C(C(=O)CC(c3ccc(OC)c(OC)c3)C2)C1c1ccccc1C` (stereo unspecified) were 0.0127 µM, 0.00978 µM and > 100 µM.
Taken in the same sequence, the figures for `CCCOC(=O)C1=C(C)NC2=C(C(=O)CC(c3ccc(OC)cc3)C2)C1c1ccccc1Cl` (stereo unspecified) were 0.0272 µM, 0.0221 µM and > 100 µM.
For `COc1ccc(C2CC(=O)C3=C(C2)NC(C)=C(C(=O)OC(C)C)C3c2cccc(Cl)c2Cl)cc1OC` (stereo unspecified), the 50% effective concentration (EC50) in the series on Plasmodium falciparum [1] was 0.0676 µM; in the series on Plasmodium falciparum [2], 0.0181 µM. Besides, the CC50 in series [3] was > 87.3 µM.
In the case of `CCCOC(=O)C1=C(C)NC2=C(C(=O)CC(c3ccc(OC)cc3)C2)C1c1ccccc1F` (stereo unspecified), the EC50 in the series with Plasmodium falciparum [1] came to 0.055 µM; with Plasmodium falciparum [2], 0.0201 µM. In addition, the CC50 in series [3] is > 100 µM.
With `CCCOC(=O)C1=C(C)NC2=C(C(=O)CC(c3ccc(Cl)cc3)C2)C1c1ccccc1F` (stereo unspecified), the EC50 in the series on Plasmodium falciparum [1] worked out at 0.254 µM; with Plasmodium falciparum [2], 0.0186 µM. For the same compound, the cytotoxic concentration (CC50) in series [3] is > 100 µM.
Turning to `COCCOC(=O)C1=C(C)NC2=C(C(=O)CC(c3ccc(OC)c(OC)c3)C2)C1c1ccccc1Cl` (stereo unspecified), the EC50 in the series on Plasmodium falciparum [1] was 0.0504 µM; with Plasmodium falciparum [2] it was 0.0132 µM. In series [3], the CC50 is > 100 µM.
With `CCOC(=O)C1=C(C)NC2=C(C(=O)CC(c3ccc(OC)c(OC)c3)C2)C1c1c(F)cccc1Cl` (stereo unspecified), the concentration giving a half-maximal response (EC50) in the series on Plasmodium falciparum [1] stood at 0.0767 µM; with Plasmodium falciparum [2], 0.023 µM. In addition, in series [3], the CC50 was > 100 µM.
Taken in the same sequence, the figures for `CCCOC(=O)C1=C(C)NC2=C(C(=O)CC(c3ccc(OC)c(OC)c3)C2)C1c1ccc([N+](=O)[O-])cc1` (stereo unspecified) were 0.0259 µM, 0.0205 µM and > 100 µM.
Take `CCOC(=O)C1=C(C)NC2=C(C(=O)CC(c3ccc(OC)c(OC)c3)C2)C1c1ccc(F)cc1` (stereo unspecified): the EC50 in the series with Plasmodium falciparum [1] was determined as 0.0183 µM; in the series with Plasmodium falciparum [2], 0.0124 µM. Moreover, the CC50 in series [3] is > 100 µM.
Taken in the same sequence, the figures for `CCCOC(=O)C1=C(C)NC2=C(C(=O)CC(c3ccc(OC)c(OC)c3)C2)C1c1cccc(Cl)c1Cl` (stereo unspecified) were 0.0484 µM, 0.0119 µM and > 100 µM.
As for `COc1ccc(C2CC(=O)C3=C(C2)NC(C)=C(C(=O)OC(C)C)C3c2ccccc2C)cc1OC` (stereo unspecified), the figures for the concentration giving a half-maximal response (EC50) with Plasmodium falciparum [1] and in the series with Plasmodium falciparum [2] were 0.00998 µM and 0.0145 µM, respectively. In addition, in series [3], the half-maximal cytotoxic concentration (CC50) was > 100 µM.
Taken in the same sequence, the figures for `COC(=O)C1=C(C)NC(=Cc2cc(C)n(-c3cc(C)ccc3C)c2C)C1=O` were 0.00953 µM, 0.0184 µM and > 100 µM.
Taken in the same sequence, the figures for `CN(C)CC(C)(C)CNCc1cc(-c2ccccc2)ccc1O` were 0.0661 µM, 0.00653 µM and 38 µM.
Turning to `CC(C)CNCc1cc(-c2ccc(F)cc2)ccc1O`, the concentration for a half-maximal effect (EC50) came out at 0.104 µM in the series with Plasmodium falciparum [1] and 0.01 µM in the series on Plasmodium falciparum [2]. Also, the 50% cytotoxic concentration (CC50) in series [3] came to 58.6 µM.
Taken in the same sequence, the figures for `C=CC1CN2CCC1C(C(O)c1ccnc3ccc(OC)cc13)C2` (stereo unspecified) were 0.00721 µM, 0.0151 µM and > 100 µM.
Taken in the same sequence, the figures for `COC(=O)C1=C(C)NC2=C(C(=O)CC(c3ccc(OC)c(OC)c3)C2)C1c1ccc(Cl)cc1Cl` (stereo unspecified) were 0.169 µM, 0.0143 µM and > 100 µM.
As for `COC(=O)C1=C(C)NC2=C(C(=O)CC(c3ccc(OC)c(OC)c3)C2)C1c1ccc(F)cc1` (stereo unspecified), the concentration giving a half-maximal response (EC50) in the series on Plasmodium falciparum [1] stood at 0.0279 µM; with Plasmodium falciparum [2], 0.014 µM. For the same compound, the cytotoxic concentration (CC50) in series [3] is > 100 µM.
For the compound `COCCOC(=O)C1=C(C)NC2=C(C(=O)CC(c3ccc(OC)c(OC)c3)C2)C1c1ccc(Cl)cc1Cl` (stereo unspecified), the EC50 in the series on Plasmodium falciparum [1] is 0.0224 µM; in the series with Plasmodium falciparum [2] it was 0.0131 µM. Besides, in series [3], the CC50 is > 100 µM.
Taken in the same sequence, the figures for `COc1ccc(C2CC(=O)C3=C(C2)NC(C)=C(C(=O)OC2CCCC2)C3c2ccccc2C)cc1OC` (stereo unspecified) were 0.0334 µM, 0.0131 µM and > 100 µM.
For `CCOC(=O)C1=C(C)NC2=C(C(=O)CC(c3ccc(OC)c(OC)c3)C2)C1c1ccc(Cl)cc1Cl` (stereo unspecified), the half-maximal effective concentration (EC50) stood at 0.0254 µM in the series with Plasmodium falciparum [1] and 0.0116 µM with Plasmodium falciparum [2]. For the same compound, the 50% cytotoxic concentration (CC50) in series [3] is > 100 µM.
Taken in the same sequence, the figures for `CCCOC(=O)C1=C(C)NC2=C(C(=O)CC(c3ccc(OC)c(OC)c3)C2)C1c1ccccc1Br` (stereo unspecified) were 0.0766 µM, 0.0112 µM and > 100 µM.
With `CCOc1cc2c(cc1OCC)C(c1ccc(O)c(Cl)c1)NCC2` (stereo unspecified), the EC50 with Plasmodium falciparum [1] was 0.157 µM; in the series with Plasmodium falciparum [2], 0.0125 µM. In addition, in series [3], the 50% cytotoxic concentration (CC50) is > 97.9 µM.
As for `COc1ccc(C2CC(=O)C3=C(C2)NC(C)=C(C(=O)OC2CCCC2)C3c2ccc([N+](=O)[O-])cc2)cc1OC` (stereo unspecified), the results for the half-maximal effective concentration (EC50) with Plasmodium falciparum [1] and in the series with Plasmodium falciparum [2] were 0.031 µM and 0.0148 µM, respectively. For the same compound, the CC50 in series [3] was > 100 µM.
Taken in the same sequence, the figures for `CN(Cc1cc(-c2ccc(F)cc2)ccc1O)CC(O)c1ccccc1` (stereo unspecified) were 0.223 µM, 0.0142 µM and > 70.9 µM.
Taken in the same sequence, the figures for `CCOC(=O)c1c(NC(C)=O)sc2c(O)c(CNC3CCCCC3)ccc12` were 0.0805 µM, 0.0214 µM and > 100 µM.
`COCCOC(=O)C1=C(C)NC2=C(C(=O)CC(c3ccc(OC)c(OC)c3)C2)C1c1ccccc1F` (stereo unspecified): the EC50 in the series with Plasmodium falciparum [1] came out at 0.082 µM; in the series on Plasmodium falciparum [2], 0.0118 µM. Also, the half-maximal cytotoxic concentration (CC50) in series [3] was > 100 µM.
Taken in the same sequence, the figures for `CC1N=C(c2ccc(NC(=O)c3ccc(C(=O)Nc4ccc(C5=NC(C)C(C)N5)cc4)cc3)cc2)NC1C` (stereo unspecified) were 0.0576 µM, 0.0148 µM and > 100 µM.
Taken in the same sequence, the figures for `Oc1ccc(-c2ccc(F)cc2)cc1CN1CCCCCC1` were 0.111 µM, 0.0196 µM and > 100 µM.
Taken in the same sequence, the figures for `CCC(c1nc2ccccc2c(=O)n1-c1ccccc1OC)N(CCc1ccccc1)C(=O)CCc1ccccc1` (stereo unspecified) were 0.135 µM, < 0.000572 µM and 4.17 µM.
Turning to `CCCOC(=O)C1=C(C)NC2=C(C(=O)CC(c3ccc(OC)cc3)C2)C1c1ccc(Cl)cc1Cl` (stereo unspecified), the 50% effective concentration (EC50) with Plasmodium falciparum [1] worked out at 0.0369 µM; in the series on Plasmodium falciparum [2] it was 0.0163 µM. In series [3], the CC50 is > 100 µM.
